This note sets out measurements from PubChem BioAssay (NCI).

What all share (assay): growth of human tumour cells (NCI), 48 h
Assay [1] relates to K-562 leukemia.
The subject of assay [2] is EKVX NSCLC.
The subject of assay [3] is MOLT-4 leukemia.
Assay [4] deals with SN12C renal.
The test system of assay [5] is TK-10 renal.
Assay [6] deals with U251 CNS.
Assay [7] concerns SW-620 colon.
Assay [8] deals with SK-OV-3 ovarian.
Assay [9] has as its system HOP-92 NSCLC.
Assay [10] concerns MALME-3M melanoma.
The subject of assay [11] is SR leukemia.
Assay [12] relates to HCC-2998 colon.

“And” between values parts separate entries of the source, which are not always exact repeats. Identical values can stand only once.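 Interpolation was linear, between the two tested concentrations surrounding the appropriate level; five concentrations were tested over 48 hours in 96-well plates. The concentration for 50% growth inhibition is given as GI50. TGI denotes the concentration required for complete inhibition of growth.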 Where a SMILES comes first, the peptide text is derived from it. [ ]: non-standard residue; d: D form. The star is where a group is joined. ξ: configuration not given here. NMeF = CN[CH](Cc1ccccc1)C(=O)O; ξNMeF = CNC(Cc1ccccc1)C(=O)O; NMeV = CN[CH](C(=O)O)C(C)C; Boc = CC(C)(C)OC(=O)*; OBn = c1ccc(CO*)cc1 Some results are limits rather than exact numbers.

In the case of `CN(c1ccccc1)c1cc2ccccc2nn1`, the TGI in assay [1], in assay [2], in assay [3], in assay [4], in [5] and in assay [6] was over 100 µM in each case. Also, the TGI in assay [7], in assay [8], in assay [9], in [10] and in assay [11] was over 100 µM throughout.

With `CCN(CC)C(=O)CCn1cc(F)c(=O)[nH]c1=O`, the TGI in assay [1], in assay [2], in [3], in assay [4], in assay [5] and in assay [6] was over 100 µM each time. Also, the TGI in [7], in assay [10] and in [11] was over 100 µM throughout.

For `COc1cccc(NC(=O)CSc2nnc(Cc3ccccc3)o2)c1`, the TGI in assay [1], in assay [3], in assay [4], in assay [5], in [6] and in assay [12] was over 100 µM each time. In addition, the TGI in [7], in [8] and in [10] was over 100 µM in each case.

On to `CC(C)C(NC(=O)OC(C)(C)C)C(=O)N(C)C(Cc1ccccc1)C(=O)N(C)C(C(=O)OCc1ccccc1)C(C)C` (stereo not drawn) (Boc-Val-[NMeF]-[NMeV]-OBn; configuration not given here), for which the GI50 in assay [1] was 12.1 µM and 51.4 µM; in assay [3], 5.92 µM and 14.8 µM; in assay [4] it was 44.3 µM and > 100 µM. The TGI in assay [1] is 95.6 µM and > 100 µM; in assay [2], over 100 µM; in [3], 39.6 µM and 44 µM; in assay [4] it was over 100 µM; in assay [5], over 100 µM; in [6], over 100 µM. Also, the TGI was over 100 µM in assay [12]; over 100 µM in assay [7]; over 100 µM in assay [8]; over 100 µM in [10]; > 100 µM and 96.2 µM in [11].

`CNC(=O)C(C)Oc1ccc(OCC2CCCCC2)cc1` (stereo unspecified): the TGI in assay [1], in assay [3], in assay [4], in assay [5], in [6] and in [8] was over 100 µM in each case. The TGI in [10] is over 100 µM.

`Nc1nc(SCC(=O)c2ccccc2)c2[nH]cnc2n1`: the TGI in assay [1], in [3], in assay [4], in assay [5], in [6] and in [12] was over 100 µM in each case. Besides, the TGI in assay [7], in [8], in [9], in [10] and in [11] was over 100 µM throughout.

Turning to `CC(=O)[O-].CC(=O)[O-].O=C(N/N=C/c1cc(Cl)cc(Cl)c1[OH2+])c1ccncc1.[Mn+2]`, the TGI in [1] was found to be 14.8 µM; in assay [2] it was 7.76 µM; in assay [3], 0.84 µM; in [4], 21.2 µM; in [5], 27.3 µM; in assay [6], 24.3 µM. Besides, the TGI turned out to be 17 µM in assay [12]; 8.09 µM in assay [7]; 51.1 µM in assay [8]; 9.91 µM in assay [9]; 18 µM in assay [10]; 4.4 µM in assay [11]. In addition, in assay [9], the GI50 was 4.71 µM.

For the compound `Cc1ccc(Nc2cccc3c2C(=O)c2cccc(Nc4ccc(C)cc4S(=O)(=O)O)c2C3=O)c(S(=O)(=O)O)c1`, the TGI in [1], in assay [2], in assay [3], in assay [4], in assay [5] and in [6] was over 100 µM in each case. Also, the TGI in assay [12], in assay [7], in [8], in [10] and in [11] was over 100 µM each time.

For `CC(C)[C@@H](C(=O)N(C)[C@H](C(=O)N1CCC[C@H]1C(=O)OCc1ccccc1)C(C)C)N(C)C(=O)C(Cc1ccccc1)N(C)C(=O)[C@H](NC(=O)OC(C)(C)C)C(C)C` (stereo partly specified) (Boc-[dV][ξNMeF][NMeV][NMeV]P-OBn), the TGI in assay [1] is over 31.6 µM; in [2], over 31.6 µM; in assay [3], over 31.6 µM; in assay [4] it was over 100 µM; in assay [5], over 31.6 µM; in assay [6], over 31.6 µM. Moreover, the TGI in assay [7] was over 31.6 µM; in assay [8] it was over 31.6 µM; in assay [9] it was over 31.6 µM; in assay [10] it was over 100 µM; in assay [11], over 31.6 µM.
